According to patent US6087355A, “Cephalosporin antibiotics” (Microcide Pharmaceuticals, Inc., priority 1996, dated 2000):
Counter-ions that a name gives are not always drawn.

Columns and labels:
Test in all cases: In vitro MIC, agar dilution
Assay type in all cases: cell-based
[1] = system: E. coli ATCC 25992; settings: Escherichia coli, ATCC25992, read-out: minimum inhibitory concentration (MIC)
Description: (§1) The compounds of the invention were evaluated against several β-lactamresistant (for example methicillin-resistant, vancomycin resistant, and/or ampicillin-resistant) bacteria strains by determining the minimum inhibitory concentration (MIC, μg/ml) of each compound with respect to each strain. The MIC, the lowest concentration of antibiotic which inhibits growth of the test organism, was determined by the agar dilution method.
(§2) To determine the MIC for bacterial isolates, the test compound was incorporated in a series of two-fold dilutions into liquified Mueller-Hinton agar. Upon solidification, a number of different bacterial strains were spot inoculated with a replicating device onto the agar surface.
(§3) Aliquots of antimicrobial agents were prepared in phosphate buffered saline (PBS) at pH 7.2. Tween 20 or DMSO was used as a solubilizing vehicle as needed. Standard methods of vortexing, sonicating and gentle heat were used to facilitate solubilizing the test agent. […] A 1.28 mg/mL stock solution was used with a subsequent highest working concentration of 128 μg/mL. Serial two-fold dilutions were done through ≤0.25 μg/mL. Each drug level was tested in duplicate. Two-fold drug dilutions were done in sterile 50 mL tubes with a final drug volume of 5 mL. Upon the addition of 45 mL of molten agar, a 10-fold dilution resulted. Two, 25 mL. plates were then poured into 15×150 mm square Petri plates with grids and allowed to harden.
(§4) A control plate with a reference drug, either cefotaxime, vancomycin or imipenem, was used as the positive growth control. Stock concentrations of reference antibiotics were prepared and frozen at -80° C. […] All test plates were used within 24 hours of preparation.
(§5) Satisfactory results were obtained where the inoculum contained about 10^4 colony forming units (cfu)±0.5 logs. Starting with pure cultures of the test isolates on agar plates, a few isolated colonies were transferred to a tube of nutrient broth and allowed to grow 4-6 hours at 35-36° C. to reach log-phase growth. Dropwise addition of the broth culture to PBS was done to match a 0.5 McFarland turbidity standard equal to 10^8 cfu/mL. This was further diluted ten-fold in PBS to reach a working inoculum concentration of 10^7 cfu/mL. When 1 μL of the working inoculum was applied to the agar surface a concentration of about 10^4 cfu per spot was obtained.
(§6) Disposable sterile 1 μL loops were used to inoculate test plates, with each isolate in a designated grid on the agar plate. An alternate method of inoculation involved the use of a replica plater, a device with 48 steel pins allowing the simultaneous inoculation of multiple isolates. After the spots had dried, the plates were incubated at 35-36° C. for 16-20 hours. Endpoints were assessed as the minimum inhibitory concentration (MIC) of antimicrobial agent.

[2] = system: E. faecalis ATCC 29212; settings: Enterococcus faecalis, ATCC29212, read-out: minimum inhibitory concentration (MIC)
Description: as §1, §2, §3, §4, §5, §6

[3] = system: E. faecalis VanB(Van^R); settings: Enterococcus faecalis, read-out: minimum inhibitory concentration (MIC)
Description: as §1, §2, §3, §4, §5, §6

[4] = system: E. faecium A491(Amp^R); settings: Enterococcus faecium, read-out: minimum inhibitory concentration (MIC)
Description: as §1, §2, §3, §4, §5, §6

[5] = system: E. faecium ATCC 35667; settings: Enterococcus faecium, ATCC35667, read-out: minimum inhibitory concentration (MIC)
Description: as §1, §2, §3, §4, §5, §6

[6] = system: E. faecium VanA(Van^R); settings: Enterococcus faecium, read-out: minimum inhibitory concentration (MIC)
Description: as §1, §2, §3, §4, §5, §6

[7] = system: P. aeruginosa ATCC 27853; settings: Pseudomonas aeruginosa, ATCC27853, read-out: minimum inhibitory concentration (MIC)
Description: as §1, §2, §3, §4, §5, §6

[8] = system: S. aureus 76(Meth^R)(lac^+); settings: Staphylococcus aureus, read-out: minimum inhibitory concentration (MIC)
Description: as §1, §2, §3, §4, §5, §6

[9] = system: S. aureus ATCC 13709(Meth^S); settings: Staphylococcus aureus, ATCC13709, S. aureus ATCC 13709(Meth^S); read-out: minimum inhibitory concentration (MIC)
Description: as §1, §2, §3, §4, §5, §6

[10] = system: S. aureus ATCC 29213; settings: Staphylococcus aureus, ATCC29213, read-out: minimum inhibitory concentration (MIC)
Description: as §1, §2, §3, §4, §5, §6

[11] = system: S. aureus ATCC 33593(Meth^R); settings: Staphylococcus aureus, ATCC33593, read-out: minimum inhibitory concentration (MIC)
Description: as §1, §2, §3, §4, §5, §6

[12] = system: S. aureus PC1(Meth^S)(lac^+); settings: Staphylococcus aureus, read-out: minimum inhibitory concentration (MIC)
Description: as §1, §2, §3, §4, §5, §6

[13] = system: S. aureus Spain #356(Meth^R); settings: Staphylococcus aureus, read-out: minimum inhibitory concentration (MIC)
Description: as §1, §2, §3, §4, §5, §6

[14] = system: S. haemolyticus 05(Meth^R); settings: Staphylococcus haemolyticus, read-out: minimum inhibitory concentration (MIC)
Description: as §1, §2, §3, §4, §5, §6

[15] = system: S. aureus Col(Meth^R)(lac^-); settings: Staphylococcus aureus, read-out: minimum inhibitory concentration (MIC)
Description: as §1, §2, §3, §4, §5, §6
The S. aureus Col strain is a high-level PBP2a producer, whereas S. aureus Col 8A, its isogenic partner, lacks PBP2a.

SMILES | MIC [1] | MIC [2] | MIC [3] | MIC [4] | MIC [5] | MIC [6] | MIC [7] | MIC [8] | MIC [9] | MIC [10] | MIC [11] | MIC [12] | MIC [13] | MIC [14] | MIC [15]
N=C(N)SCc1nnsc1SC1=C(C(=O)O)N2C(=O)[C@@H](NC(=O)/C(=N\O)c3csc(N)n3)[C@H]2SC1 [Cmpd 4, (7R)-7-[(Z)-2-(aminothiazol-4-yl)-2-(hydroxyimino)acetamido]-3-(4-isothioureidomethyl-1,2,3-thiadiazol-5-ylthio)-3-cephem-4-carboxylate, trifluoroacetic acid salt] | 4 µg/mL | 0.5 µg/mL | 4 µg/mL | > 32 µg/mL | 2 µg/mL | 4 µg/mL | > 32 µg/mL | 8 µg/mL | 0.25 µg/mL | 0.25 µg/mL | 4 µg/mL | 0.25 µg/mL | 8 µg/mL | 8 µg/mL | 8 µg/mL
CC(C)(N)CSCc1cnccc1SC1=C(C(=O)O)N2C(=O)[C@@H](NC(=O)/C(=N\O)c3nc(N)sc3Cl)[C@H]2SC1 [Cmpd 62, (7R)-7-[(Z)-2-(2-amino-5-chlorothiazol-4-yl)-2-(hydroxyimino)acetamido]-3-(3-(2-amino-2-methylpropylthiomethyl)pyrid-4-ylthio)-3-cephem-4-carboxylate, trifluoroacetic acid salt] | 8 µg/mL | 0.13 µg/mL | 0.25 µg/mL | 16 µg/mL | 1 µg/mL | 2 µg/mL | > 32 µg/mL | 4 µg/mL | 0.5 µg/mL | 0.5 µg/mL | 4 µg/mL | 0.5 µg/mL | 4 µg/mL | 4 µg/mL | 4 µg/mL
NCCSCc1cnccc1SC1=C(C(=O)O)N2C(=O)[C@@H](NC(=O)/C(=N\OC3CCCC3)c3csc(N)n3)[C@H]2SC1 [Cmpd 13, (7R)-7-[(Z)-2-(aminothiazol-4-yl)-2-(cyclopentyloxyimino)acetamido]-3-(3-aminoethylthiomethylpyrid-4-ylthio)-3-cephem-4-carboxylate, trifluoroacetic acid salt] | 8 µg/mL | 1 µg/mL | 2 µg/mL | > 32 µg/mL | 4 µg/mL | 8 µg/mL | > 32 µg/mL | 8 µg/mL | 2 µg/mL | 2 µg/mL | 8 µg/mL | 2 µg/mL | 8 µg/mL | 8 µg/mL | 4 µg/mL
NCCCSc1cnccc1SC1=C(C(=O)O)N2C(=O)[C@@H](NC(=O)/C(=N\O)c3nc(N)sc3Cl)[C@H]2SC1 [Cmpd 51, (7R)-7-[(Z)-2-(2-amino-5-chlorothiazol-4-yl)-2-(hydroxyimino)acetamido]-3-(3-(3-aminopropylthio)pyrid-4-ylthio)-3-cephem-4-carboxylate, trifluoroacetic acid salt] | 8 µg/mL | 0.13 µg/mL | 0.25 µg/mL | 8 µg/mL | 0.13 µg/mL | 1 µg/mL | > 32 µg/mL | 4 µg/mL | 0.5 µg/mL | 0.25 µg/mL | 2 µg/mL | 0.5 µg/mL | 2 µg/mL | 2 µg/mL | 2 µg/mL
CC(C)(CN)SCc1cnccc1SC1=C(C(=O)O)N2C(=O)[C@@H](NC(=O)/C(=N\O)c3csc(N)n3)[C@H]2SC1 [Cmpd 19, (7R)-7-[(Z)-2-(aminothiazol-4-yl)-2-(hydroxyimino)acetamido]-3-[3-(2-amino-1,1-dimethylethylthiomethyl)pyrid-4-ylthio]-3-cephem-4-carboxylate, trifluoroacetic acid salt] | 8 µg/mL | 1 µg/mL | 0.5 µg/mL | > 32 µg/mL | 1 µg/mL | 2 µg/mL | > 32 µg/mL | 8 µg/mL | 0.5 µg/mL | 0.5 µg/mL | 8 µg/mL | 0.5 µg/mL | 8 µg/mL | 16 µg/mL | 8 µg/mL
NCC#CCc1cnccc1SC1=C(C(=O)O)N2C(=O)[C@@H](NC(=O)/C(=N\O)c3nc(N)sc3Cl)[C@H]2SC1 [Cmpd 48, (7R)-7-[(Z)-2-(2-amino-5-chlorothiazol-4-yl)-2-(hydroxyimino)acetamido]-3-(3-(4-amino-2-butyn-1-yl)pyrid-4-ylthio)-3-cephem-4-carboxylate, trifluoroacetic acid salt] | 4 µg/mL | 0.25 µg/mL | 0.5 µg/mL | 32 µg/mL | 1 µg/mL | 4 µg/mL | > 32 µg/mL | 8 µg/mL | 0.25 µg/mL | 0.5 µg/mL | 4 µg/mL | 0.5 µg/mL | 8 µg/mL | 16 µg/mL | 4 µg/mL
NCCSCc1cnccc1SC1=C(C(=O)O)N2C(=O)[C@@H](NC(=O)/C(=N\OCCF)c3csc(N)n3)[C@H]2SC1 [Cmpd 23, (7R)-7-[(Z)-2-(aminothiazol-4-yl)-2-(2-fluoroethoxyimino)acetamido]-3-(3-aminoethylthiomethylpyrid-4-ylthio)-3-cephem-4-carboxylate, trifluoroacetic acid salt] | 2 µg/mL | 0.5 µg/mL | 1 µg/mL | > 32 µg/mL | 2 µg/mL | 4 µg/mL | > 32 µg/mL | 4 µg/mL | 0.5 µg/mL | 1 µg/mL | 4 µg/mL | 0.5 µg/mL | 4 µg/mL | 4 µg/mL | 2 µg/mL
N=C(N)SCc1cnccc1SC1=C(C(=O)O)N2C(=O)[C@@H](NC(=O)/C(=N\OC3CCCC3)c3csc(N)n3)[C@H]2SC1 [Cmpd 8, (7R)-7-[(Z)-2-(aminothiazol-4-yl)-2-(cyclopentyloxyimino)acetamido]-3-(3-isothioureidomethylpyrid-4-ylthio)-3-cephem-4-carboxylate, trifluoroacetic acid salt] | 2 µg/mL | 0.5 µg/mL | 0.5 µg/mL | 32 µg/mL | 2 µg/mL | 8 µg/mL | > 32 µg/mL | 4 µg/mL | 1 µg/mL | 1 µg/mL | 4 µg/mL | 1 µg/mL | 4 µg/mL | 4 µg/mL | 2 µg/mL
NCCSc1cnccc1SC1=C(C(=O)O)N2C(=O)[C@@H](NC(=O)/C(=N\O)c3csc(N)n3)[C@H]2SC1 [Cmpd 20, (7R)-7-[(Z)-2-(aminothiazol-4-yl)-2-(hydroxyimino)acetamido]-3-(3-aminoethylthiopyrid-4-ylthio)-3-cephem-4-carboxylate, trifluoroacetic acid salt] | 4 µg/mL | 1 µg/mL | 0.5 µg/mL | > 32 µg/mL | 1 µg/mL | 2 µg/mL | > 32 µg/mL | 4 µg/mL | 0.5 µg/mL | 0.5 µg/mL | 2 µg/mL | 0.5 µg/mL | 4 µg/mL | 4 µg/mL | 2 µg/mL
